Test results published in article PMC3382171 (PLoS ONE, 2012).

Columns and labels:
Experiment in all cases: biochemical
Conditions in all cases: read-out: Upstate KSS % inhibition at 1uM
PDGFRbeta = biological target: T1, PDGFRbeta (Homo sapiens, UniProt P09619)
T1 construct: gene PDGFRB
Method: (§1) In these selectivity assays the concentration of ATP was set to the Km value of ATP for each kinase tested to allow for a relative potency comparison between the various kinases. The compounds were tested at 1 µM final concentration. […] (A) Kinase selectivity screen (KSS) performed at Upstate Biotechnology. […] (B) KSS performed at University of Dundee (Division of Signal Transduction Therapy). […] (PDF) Click here for additional data file.

PI3Kg = biological target: T2, PI3Kg (Homo sapiens, UniProt P48736)
T2 construct: gene PIK3CG
Method: as §1

LCK = LCK (Homo sapiens, UniProt P06239)
Method: as §1

PKCmu = biological target: T3, PKCmu (Homo sapiens, UniProt Q15139)
T3 construct: gene PRKD1
Method: as §1

ROCK-11 = biological target: T4, ROCK-11 (Homo sapiens, UniProt O75116)
T4 construct: gene ROCK2
Method: as §1

TSSK2 = TSSK2 (Homo sapiens, UniProt Q96PF2)
Method: as §1

PRAK = biological target: T5, PRAK (Homo sapiens, UniProt Q8IW41)
T5 construct: gene MAPKAPK5
Method: as §1

FAK = biological target: T6, FAK (Homo sapiens, UniProt Q05397)
T6 construct: gene PTK2
Method: as §1

Yes = biological target: T7, Yes (Homo sapiens, UniProt P07947)
T7 construct: gene YES1
Method: as §1

EPHB4 = EPHB4 (Homo sapiens, UniProt P54760)
Method: as §1

Pyk2 = biological target: T8, Pyk2 (Homo sapiens, UniProt Q14289)
T8 construct: gene PTK2B
Method: as §1

Arg = biological target: T9, Arg (Homo sapiens, UniProt P42684)
T9 construct: gene ABL2
Method: as §1

FYN = FYN (Homo sapiens, UniProt P06241)
Method: as §1

PKBgamma = biological target: T10, PKBgamma (Homo sapiens, UniProt Q9Y243)
T10 construct: gene AKT3
Method: as §1

Rsk1 = biological target: T11, Rsk1 (Homo sapiens, UniProt Q15418)
T11 construct: gene RPS6KA1
Method: as §1

WNK2 = WNK2 (Homo sapiens, UniProt Q9Y3S1)
Method: as §1

PKCalpha = biological target: T12, PKCalpha (Homo sapiens, UniProt P17252)
T12 construct: gene PRKCA
Method: as §1

BMX = BMX (Homo sapiens, UniProt P51813)
Method: as §1

MLCK = biological target: T13, MLCK (Homo sapiens, UniProt Q15746)
T13 construct: gene MYLK
Method: as §1

CaMKIV = biological target: T14, CaMKIV (Homo sapiens, UniProt Q16566)
T14 construct: gene CAMK4
Method: as §1

PLK3 = PLK3 (Homo sapiens, UniProt Q9H4B4)
Method: as §1

LKB1 = biological target: T15, LKB1 (Homo sapiens, UniProt Q15831)
T15 construct: gene STK11
Method: as §1

IKKalpha = biological target: T16, IKKalpha (Homo sapiens, UniProt O15111)
T16 construct: gene CHUK
Method: as §1

PKCgamma = biological target: T17, PKCgamma (Homo sapiens, UniProt P05129)
T17 construct: gene PRKCG
Method: as §1

Fms = biological target: T18, Fms (Homo sapiens, UniProt P07333)
T18 construct: gene CSF1R
Method: as §1

GSK3beta = biological target: T19, GSK3beta (Homo sapiens, UniProt P49841)
T19 construct: gene GSK3B
Method: as §1

RIPK2 = RIPK2 (Homo sapiens, UniProt O43353)
Method: as §1

BLK = BLK (Homo sapiens, UniProt P51451)
Method: as §1

ALK = ALK (Homo sapiens, UniProt Q9UM73)
Method: as §1

PDGFRalpha = biological target: T20, PDGFRalpha (Homo sapiens, UniProt P16234)
T20 construct: gene PDGFRA
Method: as §1

SRPK2 = SRPK2 (Homo sapiens, UniProt P78362)
Method: as §1

TrkB = biological target: T21, TrkB (Homo sapiens, UniProt Q16620)
T21 construct: gene NTRK2
Method: as §1

RSK2 = biological target: T22, RSK2 (Homo sapiens, UniProt P51812)
T22 construct: gene RPS6KA3
Method: as §1

MSK1 = biological target: T23, MSK1 (Homo sapiens, UniProt O75582)
T23 construct: gene RPS6KA5
Method: as §1

T23 sequence (O75582 whole entry): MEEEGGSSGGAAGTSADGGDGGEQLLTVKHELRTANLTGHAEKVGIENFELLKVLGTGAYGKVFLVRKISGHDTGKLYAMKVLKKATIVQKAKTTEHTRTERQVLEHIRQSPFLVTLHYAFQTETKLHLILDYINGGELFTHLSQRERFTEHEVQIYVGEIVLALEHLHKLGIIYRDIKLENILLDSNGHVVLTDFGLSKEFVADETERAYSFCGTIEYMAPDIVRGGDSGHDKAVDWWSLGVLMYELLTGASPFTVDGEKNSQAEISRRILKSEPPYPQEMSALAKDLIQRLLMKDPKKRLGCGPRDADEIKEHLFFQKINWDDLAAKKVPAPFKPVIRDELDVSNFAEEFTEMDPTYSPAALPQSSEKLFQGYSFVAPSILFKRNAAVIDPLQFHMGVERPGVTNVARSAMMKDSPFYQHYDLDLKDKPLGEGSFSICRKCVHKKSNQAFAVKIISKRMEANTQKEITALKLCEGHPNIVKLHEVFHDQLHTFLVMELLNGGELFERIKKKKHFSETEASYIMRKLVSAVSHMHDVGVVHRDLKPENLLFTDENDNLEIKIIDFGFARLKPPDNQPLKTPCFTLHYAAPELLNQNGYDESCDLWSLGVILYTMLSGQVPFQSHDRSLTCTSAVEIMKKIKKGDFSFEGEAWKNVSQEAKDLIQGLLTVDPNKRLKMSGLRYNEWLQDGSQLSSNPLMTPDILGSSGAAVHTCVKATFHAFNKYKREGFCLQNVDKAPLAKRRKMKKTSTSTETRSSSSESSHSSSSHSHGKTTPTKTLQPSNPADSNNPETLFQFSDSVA
T7 sequence (P07947 whole entry): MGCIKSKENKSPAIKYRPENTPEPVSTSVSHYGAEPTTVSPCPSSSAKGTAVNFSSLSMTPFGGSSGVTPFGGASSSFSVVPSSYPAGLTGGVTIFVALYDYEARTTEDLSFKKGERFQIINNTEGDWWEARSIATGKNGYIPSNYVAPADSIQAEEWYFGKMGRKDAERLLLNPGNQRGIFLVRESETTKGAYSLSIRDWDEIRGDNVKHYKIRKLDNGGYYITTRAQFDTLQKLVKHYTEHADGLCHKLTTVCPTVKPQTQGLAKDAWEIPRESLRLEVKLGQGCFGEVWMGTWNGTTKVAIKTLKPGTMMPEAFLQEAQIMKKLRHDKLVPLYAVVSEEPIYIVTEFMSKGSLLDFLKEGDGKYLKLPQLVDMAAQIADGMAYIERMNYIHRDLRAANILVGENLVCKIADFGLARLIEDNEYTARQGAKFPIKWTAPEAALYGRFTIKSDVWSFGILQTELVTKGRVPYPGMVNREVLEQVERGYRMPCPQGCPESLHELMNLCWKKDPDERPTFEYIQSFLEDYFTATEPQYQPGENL
Sequence of WNK2 (Q9Y3S1 whole entry): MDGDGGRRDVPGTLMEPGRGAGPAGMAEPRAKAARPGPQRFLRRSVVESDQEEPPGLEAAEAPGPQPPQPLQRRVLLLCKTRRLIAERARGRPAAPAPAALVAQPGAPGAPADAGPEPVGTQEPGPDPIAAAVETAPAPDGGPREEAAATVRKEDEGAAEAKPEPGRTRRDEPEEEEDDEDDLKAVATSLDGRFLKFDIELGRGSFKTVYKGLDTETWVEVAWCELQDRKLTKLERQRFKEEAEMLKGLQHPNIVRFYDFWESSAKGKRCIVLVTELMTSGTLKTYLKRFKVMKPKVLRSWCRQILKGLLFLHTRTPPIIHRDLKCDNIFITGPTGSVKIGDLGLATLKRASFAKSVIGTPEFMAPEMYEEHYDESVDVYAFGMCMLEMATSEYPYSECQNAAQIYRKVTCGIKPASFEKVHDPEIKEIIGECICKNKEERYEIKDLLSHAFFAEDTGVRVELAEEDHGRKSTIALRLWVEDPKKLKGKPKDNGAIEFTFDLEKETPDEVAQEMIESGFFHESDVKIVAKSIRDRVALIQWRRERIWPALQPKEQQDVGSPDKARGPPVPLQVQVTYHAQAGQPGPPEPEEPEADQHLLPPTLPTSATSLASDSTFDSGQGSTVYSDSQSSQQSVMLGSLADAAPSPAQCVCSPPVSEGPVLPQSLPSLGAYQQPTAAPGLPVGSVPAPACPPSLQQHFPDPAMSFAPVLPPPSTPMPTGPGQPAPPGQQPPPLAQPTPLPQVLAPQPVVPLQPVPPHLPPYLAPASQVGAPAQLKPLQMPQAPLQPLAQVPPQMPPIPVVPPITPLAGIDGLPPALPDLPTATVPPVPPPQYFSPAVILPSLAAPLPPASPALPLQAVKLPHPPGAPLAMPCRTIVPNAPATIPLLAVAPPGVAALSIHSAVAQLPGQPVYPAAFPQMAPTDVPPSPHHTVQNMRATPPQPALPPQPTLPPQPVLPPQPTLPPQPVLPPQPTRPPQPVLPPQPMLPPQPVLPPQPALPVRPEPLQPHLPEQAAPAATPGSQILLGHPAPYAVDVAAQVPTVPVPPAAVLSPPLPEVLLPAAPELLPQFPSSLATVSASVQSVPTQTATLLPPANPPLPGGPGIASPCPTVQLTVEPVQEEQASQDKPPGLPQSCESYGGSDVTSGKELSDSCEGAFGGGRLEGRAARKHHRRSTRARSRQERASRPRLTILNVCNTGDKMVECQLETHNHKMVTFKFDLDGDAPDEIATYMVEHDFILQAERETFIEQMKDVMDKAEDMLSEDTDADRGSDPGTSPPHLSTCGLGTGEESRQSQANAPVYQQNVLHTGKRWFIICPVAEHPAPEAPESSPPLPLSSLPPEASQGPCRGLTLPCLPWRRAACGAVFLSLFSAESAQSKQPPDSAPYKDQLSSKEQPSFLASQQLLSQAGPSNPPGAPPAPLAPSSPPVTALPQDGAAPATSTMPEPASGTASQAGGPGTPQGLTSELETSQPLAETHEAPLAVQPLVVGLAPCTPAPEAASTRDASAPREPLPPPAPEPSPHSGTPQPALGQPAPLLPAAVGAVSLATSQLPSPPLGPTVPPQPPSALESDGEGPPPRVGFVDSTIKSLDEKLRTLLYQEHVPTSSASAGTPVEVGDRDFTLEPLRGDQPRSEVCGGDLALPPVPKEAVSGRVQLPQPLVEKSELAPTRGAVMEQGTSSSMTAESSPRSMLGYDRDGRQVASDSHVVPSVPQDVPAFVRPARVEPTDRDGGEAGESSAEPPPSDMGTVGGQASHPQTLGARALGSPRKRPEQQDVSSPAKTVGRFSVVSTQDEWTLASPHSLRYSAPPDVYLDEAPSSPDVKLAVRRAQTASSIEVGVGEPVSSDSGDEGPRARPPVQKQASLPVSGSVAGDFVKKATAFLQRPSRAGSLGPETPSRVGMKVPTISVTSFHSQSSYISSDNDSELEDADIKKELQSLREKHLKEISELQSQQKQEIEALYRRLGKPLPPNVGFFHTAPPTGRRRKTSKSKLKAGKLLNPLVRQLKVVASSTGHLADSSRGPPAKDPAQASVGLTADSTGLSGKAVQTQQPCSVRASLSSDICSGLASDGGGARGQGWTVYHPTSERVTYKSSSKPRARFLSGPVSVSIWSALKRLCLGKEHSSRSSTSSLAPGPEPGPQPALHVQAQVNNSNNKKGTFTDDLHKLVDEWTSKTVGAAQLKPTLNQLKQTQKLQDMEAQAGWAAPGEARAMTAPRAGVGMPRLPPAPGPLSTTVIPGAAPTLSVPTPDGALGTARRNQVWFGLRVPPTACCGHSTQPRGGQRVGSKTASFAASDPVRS
T2 sequence (P48736 whole entry): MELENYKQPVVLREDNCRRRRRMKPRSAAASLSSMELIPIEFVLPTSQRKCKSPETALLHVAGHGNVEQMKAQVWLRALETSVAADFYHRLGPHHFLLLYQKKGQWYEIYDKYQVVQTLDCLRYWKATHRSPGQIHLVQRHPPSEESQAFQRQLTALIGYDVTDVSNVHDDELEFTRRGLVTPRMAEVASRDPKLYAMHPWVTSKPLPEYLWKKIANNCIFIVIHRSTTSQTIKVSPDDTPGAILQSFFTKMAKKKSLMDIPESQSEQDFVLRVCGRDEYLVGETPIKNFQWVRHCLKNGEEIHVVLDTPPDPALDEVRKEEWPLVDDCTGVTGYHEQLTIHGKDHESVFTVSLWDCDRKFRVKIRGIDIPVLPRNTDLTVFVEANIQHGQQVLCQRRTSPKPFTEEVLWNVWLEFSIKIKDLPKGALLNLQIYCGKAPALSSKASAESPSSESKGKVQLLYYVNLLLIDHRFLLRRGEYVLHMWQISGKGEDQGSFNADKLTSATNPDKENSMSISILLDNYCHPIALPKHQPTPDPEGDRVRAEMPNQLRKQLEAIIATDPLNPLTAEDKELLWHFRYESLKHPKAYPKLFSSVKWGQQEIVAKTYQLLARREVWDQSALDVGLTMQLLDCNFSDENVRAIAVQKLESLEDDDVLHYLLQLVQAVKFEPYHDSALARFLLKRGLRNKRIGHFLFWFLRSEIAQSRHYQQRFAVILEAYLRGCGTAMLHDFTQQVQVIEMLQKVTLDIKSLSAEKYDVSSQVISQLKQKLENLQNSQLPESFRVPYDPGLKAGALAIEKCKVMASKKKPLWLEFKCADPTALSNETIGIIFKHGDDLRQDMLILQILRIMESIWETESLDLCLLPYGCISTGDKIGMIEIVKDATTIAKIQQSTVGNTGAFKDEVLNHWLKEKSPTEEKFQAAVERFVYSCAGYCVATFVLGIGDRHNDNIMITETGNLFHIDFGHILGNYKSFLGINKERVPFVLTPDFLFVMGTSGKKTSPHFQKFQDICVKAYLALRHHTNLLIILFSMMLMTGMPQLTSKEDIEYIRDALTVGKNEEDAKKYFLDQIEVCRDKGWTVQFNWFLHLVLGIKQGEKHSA
Sequence of TSSK2 (Q96PF2 whole entry): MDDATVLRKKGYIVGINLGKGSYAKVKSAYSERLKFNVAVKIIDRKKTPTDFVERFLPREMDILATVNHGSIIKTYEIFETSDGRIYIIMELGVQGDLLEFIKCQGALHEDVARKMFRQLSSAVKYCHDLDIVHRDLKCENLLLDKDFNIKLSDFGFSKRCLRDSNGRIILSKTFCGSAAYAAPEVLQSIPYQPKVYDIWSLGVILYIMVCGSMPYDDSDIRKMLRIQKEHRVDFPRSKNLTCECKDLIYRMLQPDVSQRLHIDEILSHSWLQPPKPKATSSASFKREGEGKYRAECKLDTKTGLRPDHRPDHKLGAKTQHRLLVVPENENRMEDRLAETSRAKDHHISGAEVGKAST

inhibition at 1 µM (PDGFRbeta): -27%
inhibition at 1 µM (PI3Kg): 1%
inhibition at 1 µM (LCK): -8%
inhibition at 1 µM (PKCmu): 5%
inhibition at 1 µM (ROCK-11): 0%
inhibition at 1 µM (TSSK2): 4%
inhibition at 1 µM (PRAK): -2%
inhibition at 1 µM (FAK): -9%
inhibition at 1 µM (Yes): 16%
inhibition at 1 µM (EPHB4): -23%
inhibition at 1 µM (Pyk2): -17%
inhibition at 1 µM (Arg): 10%
inhibition at 1 µM (FYN): -20%
inhibition at 1 µM (PKBgamma): 5%
inhibition at 1 µM (Rsk1): -11%
inhibition at 1 µM (WNK2): -16%
inhibition at 1 µM (PKCalpha): -7%
inhibition at 1 µM (BMX): -10%
inhibition at 1 µM (MLCK): -32%
inhibition at 1 µM (CaMKIV): -4%
inhibition at 1 µM (PLK3): -7%
inhibition at 1 µM (LKB1): -10%
inhibition at 1 µM (IKKalpha): -2%
inhibition at 1 µM (PKCgamma): 5%
inhibition at 1 µM (Fms): -12%
inhibition at 1 µM (GSK3beta): -1%
inhibition at 1 µM (RIPK2): 3%
inhibition at 1 µM (BLK): 5%
inhibition at 1 µM (ALK): 54%
inhibition at 1 µM (PDGFRalpha): -28%
inhibition at 1 µM (SRPK2): -2%
inhibition at 1 µM (TrkB): 10%
inhibition at 1 µM (RSK2): -22%
inhibition at 1 µM (MSK1): -5%
Compound: OCCn1cc(-c2cnc3nnn(Cc4ccc5ncccc5c4)c3n2)cn1 [METi, PF-04217903]
